Measured values taken from patent US20250268826A1, “IONIZABLE LIPIDOID COMPOSITIONS AND THERAPEUTIC USES THEREOF” (Flagship Pioneering Innovations VII, LLC, priority 2023, published 2025).

Assay: LNP size and polydispersity index (PDI) by dynamic light scattering (DLS)
Assay type: physicochemical
Settings: Table 8; LNP 50:10:38.5:1.5 mol %; hEPO mRNA; N:P 6

| PDI | SMILES |
| --- | --- |
| 0.088 | CCCCCCCCC(CCCCCC)C(=O)OCCN(CCOC(=O)C(CCCCCC)CCCCCCCC)C(=O)CCCN(C)CCO.Cl (stereo not shown) [Compound 986] |

Same assay, conditions: Table 8; LNP Lipid:DSPC:Cholesterol:DMG-PEG2k 50:10:38.5:1.5 mol %; hEPO mRNA; N:P 6

| Size | SMILES |
| --- | --- |
| 112.9 nm | CCCCCCCCC(CCCCCC)C(=O)OCCN(CCOC(=O)C(CCCCCC)CCCCCCCC)C(=O)CCCN(C)CCO.Cl (stereo not shown) [Compound 986] |

Same assay, conditions: Table 9; LNP 50:10:38.5:1.5 mol %; hEPO mRNA; N:P 6

| PDI | SMILES |
| --- | --- |
| 0.368 | CCCCCCCCC(CCCCCC)C(=O)OCCN(CCOC(=O)C(CCCCCC)CCCCCCCC)C(=O)CNCCC.Cl (stereo not shown) [Compound 968] |
| 0.15 | CCCCCCCCC(CCCCCC)C(=O)OCCN(CCOC(=O)C(CCCCCC)CCCCCCCC)C(=O)CN(C)CCC.Cl (stereo not shown) [Compound 969] |

Same assay, conditions: Table 9; LNP Lipid:DSPC:Cholesterol:DMG-PEG2k 50:10:38.5:1.5 mol %; hEPO mRNA; N:P 6

| Size | SMILES |
| --- | --- |
| 76.7 nm | CCCCCCCCC(CCCCCC)C(=O)OCCN(CCOC(=O)C(CCCCCC)CCCCCCCC)C(=O)CNCCC.Cl (stereo not shown) [Compound 968] |
| 70 nm | CCCCCCCCC(CCCCCC)C(=O)OCCN(CCOC(=O)C(CCCCCC)CCCCCCCC)C(=O)CN(C)CCC.Cl (stereo not shown) [Compound 969] |

Same assay, conditions: Table 11; LNP with hEPO mRNA, Lipid:DSPC:Cholesterol:DMG-PEG2k 50:10:38.5:1.5 mol % (ALC-0315: 46.3:9.4:42.7:1.6), N:P ratio 6; HEPES/sodium chloride/sucrose buffer, stored at −80C

| PDI | Size (nm) | SMILES |
| --- | --- | --- |
| 0.102 | 74.1 nm | CCCCCCCC(CCCCCCC)C(=O)OCCN(CCOC(=O)C(CCCCCCC)CCCCCCC)C(=O)C(C)CCN(C)C.Cl (stereo not shown) [Compound 987b] |
| 0.066 | 72.0 nm | CCCCCCCCCC(CCCCCCCCC)C(=O)OCCN(CCOC(=O)C(CCCCCCCCC)CCCCCCCCC)C(=O)C(C)CCN(C)C.Cl (stereo not shown) [Compound 987c] |
| 0.092 | 62.9 nm | CCCCCCCCC(CCCCCC)C(=O)OCCN(CCOC(=O)C(CCCCCC)CCCCCCCC)C(=O)C(C)CCNC.Cl (stereo not shown) [Compound 987d] |
| 0.110 | 70.5 nm | CCCCCCCCC(CCCCCC)C(=O)OCCN(CCOC(=O)C(CCCCCC)CCCCCCCC)C(=O)C(C)CCNCC.Cl (stereo not shown) [Compound 987e] |

Assay: LNP Zeta potential measured using a Zetasizer (Malvern)
Assay type: physicochemical
Settings: Table 8; LNP 50:10:38.5:1.5 mol %; hEPO mRNA; N:P 6

| Zeta potential | SMILES |
| --- | --- |
| −8.2 mV | CCCCCCCCC(CCCCCC)C(=O)OCCN(CCOC(=O)C(CCCCCC)CCCCCCCC)C(=O)CCCN(C)CCO.Cl (stereo not shown) [Compound 986] |

Same assay, conditions: Table 9; LNP 50:10:38.5:1.5 mol %; hEPO mRNA; N:P 6

| Zeta potential | SMILES |
| --- | --- |
| −13.15 mV | CCCCCCCCC(CCCCCC)C(=O)OCCN(CCOC(=O)C(CCCCCC)CCCCCCCC)C(=O)CNCCC.Cl (stereo not shown) [Compound 968] |
| −28.83 mV | CCCCCCCCC(CCCCCC)C(=O)OCCN(CCOC(=O)C(CCCCCC)CCCCCCCC)C(=O)CN(C)CCC.Cl (stereo not shown) [Compound 969] |

Same assay, conditions: Table 11; LNP with hEPO mRNA, Lipid:DSPC:Cholesterol:DMG-PEG2k 50:10:38.5:1.5 mol % (ALC-0315: 46.3:9.4:42.7:1.6), N:P ratio 6; HEPES/sodium chloride/sucrose buffer, stored at −80C

| Zeta potential (mV) | SMILES |
| --- | --- |
| −2.1 mV | CCCCCCCC(CCCCCCC)C(=O)OCCN(CCOC(=O)C(CCCCCCC)CCCCCCC)C(=O)C(C)CCN(C)C.Cl (stereo not shown) [Compound 987b] |
| −6.6 mV | CCCCCCCCCC(CCCCCCCCC)C(=O)OCCN(CCOC(=O)C(CCCCCCCCC)CCCCCCCCC)C(=O)C(C)CCN(C)C.Cl (stereo not shown) [Compound 987c] |
| −1.5 mV | CCCCCCCCC(CCCCCC)C(=O)OCCN(CCOC(=O)C(CCCCCC)CCCCCCCC)C(=O)C(C)CCNC.Cl (stereo not shown) [Compound 987d] |
| 0.8 mV | CCCCCCCCC(CCCCCC)C(=O)OCCN(CCOC(=O)C(CCCCCC)CCCCCCCC)C(=O)C(C)CCNCC.Cl (stereo not shown) [Compound 987e] |

Assay: Encapsulation efficiency (EE %) by fluorescence based Ribogreen assay
Assay type: physicochemical
Settings: Table 8; LNP 50:10:38.5:1.5 mol %; hEPO mRNA; N:P 6

| Encapsulation Efficiency % | SMILES |
| --- | --- |
| 99.9% | CCCCCCCCC(CCCCCC)C(=O)OCCN(CCOC(=O)C(CCCCCC)CCCCCCCC)C(=O)CCCN(C)CCO.Cl (stereo not shown) [Compound 986] |

Same assay, conditions: Table 9; LNP 50:10:38.5:1.5 mol %; hEPO mRNA; N:P 6

| Encapsulation Efficiency % | SMILES |
| --- | --- |
| 98.2% | CCCCCCCCC(CCCCCC)C(=O)OCCN(CCOC(=O)C(CCCCCC)CCCCCCCC)C(=O)CNCCC.Cl (stereo not shown) [Compound 968] |
| 99.4% | CCCCCCCCC(CCCCCC)C(=O)OCCN(CCOC(=O)C(CCCCCC)CCCCCCCC)C(=O)CN(C)CCC.Cl (stereo not shown) [Compound 969] |

Same assay, conditions: Table 11; LNP with hEPO mRNA, Lipid:DSPC:Cholesterol:DMG-PEG2k 50:10:38.5:1.5 mol % (ALC-0315: 46.3:9.4:42.7:1.6), N:P ratio 6; HEPES/sodium chloride/sucrose buffer, stored at −80C

| Encapsulation Efficiency % | SMILES |
| --- | --- |
| 93.6% | CCCCCCCC(CCCCCCC)C(=O)OCCN(CCOC(=O)C(CCCCCCC)CCCCCCC)C(=O)C(C)CCN(C)C.Cl (stereo not shown) [Compound 987b] |
| 98.0% | CCCCCCCCCC(CCCCCCCCC)C(=O)OCCN(CCOC(=O)C(CCCCCCCCC)CCCCCCCCC)C(=O)C(C)CCN(C)C.Cl (stereo not shown) [Compound 987c] |
| 99.2% | CCCCCCCCC(CCCCCC)C(=O)OCCN(CCOC(=O)C(CCCCCC)CCCCCCCC)C(=O)C(C)CCNC.Cl (stereo not shown) [Compound 987d] |
| 99.4% | CCCCCCCCC(CCCCCC)C(=O)OCCN(CCOC(=O)C(CCCCCC)CCCCCCCC)C(=O)C(C)CCNCC.Cl (stereo not shown) [Compound 987e] |
